Results on one molecule are retold here after ChEMBL document CHEMBL4229572, “VU6007477, a Novel M1 PAM Based on a Pyrrolo[2,3-b]pyridine Carboxamide Core Devoid of Cholinergic Adverse Events” (ACS Med Chem Lett, 2018).

The target in series [1] is T1, Muscarinic acetylcholine receptor M5 (Homo sapiens, UniProt P08912).
T1 sequence (P08912 whole entry): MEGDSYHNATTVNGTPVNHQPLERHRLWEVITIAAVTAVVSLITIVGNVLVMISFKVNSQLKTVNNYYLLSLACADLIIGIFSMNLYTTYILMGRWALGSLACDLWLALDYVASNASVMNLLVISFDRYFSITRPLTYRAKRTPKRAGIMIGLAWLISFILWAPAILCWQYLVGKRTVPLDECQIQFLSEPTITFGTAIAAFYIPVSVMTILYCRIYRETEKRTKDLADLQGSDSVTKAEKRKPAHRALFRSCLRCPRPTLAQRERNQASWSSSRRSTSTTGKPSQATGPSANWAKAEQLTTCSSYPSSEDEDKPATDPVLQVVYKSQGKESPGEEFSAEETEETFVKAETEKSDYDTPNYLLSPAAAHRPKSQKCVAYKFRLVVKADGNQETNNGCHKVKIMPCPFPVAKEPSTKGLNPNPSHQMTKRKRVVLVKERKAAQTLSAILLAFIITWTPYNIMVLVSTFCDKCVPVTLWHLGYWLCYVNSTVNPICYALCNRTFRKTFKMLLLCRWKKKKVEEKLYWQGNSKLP
In words: Positive allosteric modulation of human M5 receptor expressed in CHO cells assessed as increase in acetylcholine-induced calcium mobilization pretreated for 2.5 mins followed by acetylcholine addition and measured after 1 min by Fluo-4-AM dye based assay. It is filed as functional, cell-based. On the technique in general: A change in cytosolic calcium serves as a functional read-out for many receptors and channels.

The next series relates to Mus musculus. Briefly: Cholinergic toxicity in C57BL/6J mouse assessed as induction of seizure activity at 100 mg/kg, ip measured within 30 mins. It is filed as organism-based. To be noted: in vivo, 0.5 h.
Series [2] is described as follows: Ratio of unbound brain to plasma concentration in cannulated Sprague-Dawley rat at 0.2 mg/kg, iv administered via jugular vein as cassette dose measured after 0.25 hrs by LC-MS/MS analysis. It is filed as ADME, organism-based. To be noted: Sprague-Dawley, brain and plasma, read-out: K(p,uu,brain).
Series [3] concerns the target T2, Muscarinic acetylcholine receptor M1 (Homo sapiens, UniProt P11229).
T2 sequence (P11229 whole entry): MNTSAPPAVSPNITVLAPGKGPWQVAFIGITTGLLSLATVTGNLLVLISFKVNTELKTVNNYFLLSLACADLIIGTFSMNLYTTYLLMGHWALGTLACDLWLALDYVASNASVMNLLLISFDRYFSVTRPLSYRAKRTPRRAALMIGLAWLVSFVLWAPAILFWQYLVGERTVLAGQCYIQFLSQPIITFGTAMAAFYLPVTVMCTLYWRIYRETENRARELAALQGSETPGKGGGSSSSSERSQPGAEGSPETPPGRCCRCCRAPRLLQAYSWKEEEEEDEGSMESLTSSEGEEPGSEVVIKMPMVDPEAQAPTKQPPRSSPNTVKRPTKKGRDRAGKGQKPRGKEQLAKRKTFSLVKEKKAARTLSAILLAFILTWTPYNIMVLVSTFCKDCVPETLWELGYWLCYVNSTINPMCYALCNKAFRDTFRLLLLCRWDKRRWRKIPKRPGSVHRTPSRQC
In words: Agonist activity at human M1 receptor expressed in CHO cells assessed as increase in calcium mobilization measured after 2.5 mins by Fluo-4-AM dye based assay. It is filed as functional, cell-based.

A short description of series [4]: Ratio of unbound brain to plasma concentration in C57BL/6J mouse at 100 mg/kg, ip after 1 hr by LC-MS/MS analysis. It is filed as ADME, organism-based. To be noted: brain and plasma, read-out: K(p,uu,brain).
Another series has as its system P-gp. Briefly: Substrate activity at P-gp (unknown origin) assessed as efflux ratio of permeability. It is filed as ADME. To be noted: human, not told.
The nature of series [5]: Total brain to plasma partition coefficient, Kp in cannulated Sprague-Dawley rat at 0.2 mg/kg, iv administered via jugular vein as cassette dose measured after 0.25 hrs by LC-MS/MS analysis. It is filed as ADME, organism-based. To be noted: Sprague-Dawley, brain and plasma.
Series [6] deals with T3, Muscarinic acetylcholine receptor M1 (Rattus norvegicus) (UniProt P08482).
T3 sequence (whole entry): T2 sequence (P11229 whole entry) with A5V, T254S, P309S, R320K, A337G, I413V
In words: (§1) Positive allosteric modulation of rat M1 receptor expressed in CHO cells assessed as increase in acetylcholine-induced calcium mobilization pretreated for 2.5 mins followed by acetylcholine addition and measured after 1 min by Fluo-4-AM dye based assay. It is filed as functional, cell-based.

The target of series [7] is T4, Muscarinic acetylcholine receptor M1 (Rattus norvegicus, UniProt P08482).
T4 sequence (P08482 whole entry): T2 sequence (P11229 whole entry) with A5V, T254S, P309S, R320K, A337G, I413V
Described as §1. The settings on record: read-out: EC50. It is filed as functional, cell-based.

The target of series [8] is Muscarinic acetylcholine receptor M3 (Homo sapiens, UniProt P20309). In words: Positive allosteric modulation of human M3 receptor expressed in CHO cells assessed as increase in acetylcholine-induced calcium mobilization pretreated for 2.5 mins followed by acetylcholine addition and measured after 1 min by Fluo-4-AM dye based assay. It is filed as functional, cell-based.

The nature of series [9]: Protein binding in rat plasma assessed as unbound fraction at 5 uL measured after 4 hrs by LC-MS/MS based equilibrium dialysis method. It is filed as ADME, cell-free.

Numbering of substitutions follows the chain as printed.

Muscarinic acetylcholine receptor M3, sequence (P20309 whole entry): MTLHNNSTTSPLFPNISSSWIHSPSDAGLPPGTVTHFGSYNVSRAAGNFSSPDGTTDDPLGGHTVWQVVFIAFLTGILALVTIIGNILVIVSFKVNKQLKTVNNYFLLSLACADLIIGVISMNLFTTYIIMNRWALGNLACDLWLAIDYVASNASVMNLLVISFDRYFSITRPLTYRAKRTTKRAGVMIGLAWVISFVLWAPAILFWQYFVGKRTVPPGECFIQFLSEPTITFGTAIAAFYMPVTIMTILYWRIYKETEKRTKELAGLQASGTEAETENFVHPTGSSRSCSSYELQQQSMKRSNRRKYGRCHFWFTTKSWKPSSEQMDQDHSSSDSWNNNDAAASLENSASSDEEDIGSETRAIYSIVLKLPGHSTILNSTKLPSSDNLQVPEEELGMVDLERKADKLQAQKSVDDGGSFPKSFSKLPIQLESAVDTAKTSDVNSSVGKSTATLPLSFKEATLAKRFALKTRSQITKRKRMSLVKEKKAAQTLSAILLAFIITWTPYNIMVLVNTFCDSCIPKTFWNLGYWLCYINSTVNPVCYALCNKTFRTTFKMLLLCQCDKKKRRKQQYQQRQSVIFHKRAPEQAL

Regarding `Cn1cc(-c2ccc(Cc3cc(C(=O)NC4CCOCC4)nc4c3ccn4C)cn2)cn1`, the EC50 in series [1] is more than 30000 nM; in series [3], 324 nM; in series [7], 230 nM; in series [8], more than 30000 nM. Further, in the series on Mus musculus, the Activity result is “Non-Toxic”. The Kp uu at 0.25 h in series [2] was found to be 0.32. The Kp uu at 1 h in series [4] is 0.18. Further, in the series with P-gp, the efflux ratio turned out to be 4.5. The molecule also came in with a Kp at 0.25 h in series [5] of 0.28. Further, the %max in series [6] amounted to 93%. Moreover, the negative logarithm of the Kb (pKb) in [6] was determined as 4.82. Also, the fraction unbound at 4 h, 5 uL in series [9] stood at 0.06.

A word on the EC50: it is the concentration giving half of the maximal effect. As a reminder, the efflux ratio is a quotient of directional permeabilities that is used to spot active efflux. As usually defined, the Kp is the ratio of the level in a tissue or fluid to that in plasma or blood. The pKb is −log10 of the Kb, conventionally taken in molar units. What is called fraction unbound is the share of the substance not bound to proteins or other matrix.
